Laboratory results published in patent US4808517A (priority 1985, dated 1989).

System: submitochondrial particles
Type: biochemical

SMILES: Oc1c(Cl)c(Cl)c(Cl)c(Cl)c1Cl [Pentachlorophenol]
- Inhibition of maximum NADH concentration: 39%
